Results taken from PMC2763345 (PLoS Pathogens, 2009).
In brackets after ≈: the same amount, converted by molar mass.

Legend:
[1] = system: BCG Rv3790/DprE1 Cys387Ser (BN2); type: cell-based, M. bovis BCG
[2] = system: M. smegmatis Rv3790/DprE1 Cys387Gly (MN47); type: cell-based
[3] = system: M. smegmatis Rv3790/DprE1 Cys387Ser (MN84); type: cell-based

Row | SMILES | MIC [1] [µg/mL] | MIC [2] [µg/mL] | MIC [3] [µg/mL]
1 | O=C(NCCOCc1ccccc1)c1cc([N+](=O)[O-])cc([N+](=O)[O-])c1 [Compound 7, N-(2-(benzyloxy)ethyl)-3,5-dinitrobenzamide] | > 10 |  | 
2 | COc1ccc(OCCNC(=O)c2cc([N+](=O)[O-])cc([N+](=O)[O-])c2)cc1 [Compound 8, N-(2-(4-methoxyphenoxy)ethyl)-3,5-dinitrobenzamide] | > 10 |  | 
3 | CO[C@H]1/C=C/O[C@@]2(C)Oc3c(C)c(O)c4c(O)c(c(/C=N/N5CCN(C)CC5)c(O)c4c3C2=O)NC(=O)/C(C)=C\C=C\[C@H](C)[C@H](O)[C@@H](C)[C@@H](O)[C@@H](C)[C@H](OC(C)=O)[C@@H]1C [Rifampin] | 0.31 (≈ 0.377 µM) | 0.31 (≈ 0.377 µM) | 0.31 (≈ 0.377 µM)
